The results in this text go back to article PMC6063332 (Archives of Toxicology, 2018).

As a reminder, the IC50 is the point on the concentration scale where inhibition reaches its midpoint. Lower therefore signals greater potency in that assay.

Assay [1] addresses T1, HDAC10 (Homo sapiens, UniProt Q969S8).
T1 construct: host or cells: HeLa cells, stably transfected
T1 sequence (Q969S8 1-669): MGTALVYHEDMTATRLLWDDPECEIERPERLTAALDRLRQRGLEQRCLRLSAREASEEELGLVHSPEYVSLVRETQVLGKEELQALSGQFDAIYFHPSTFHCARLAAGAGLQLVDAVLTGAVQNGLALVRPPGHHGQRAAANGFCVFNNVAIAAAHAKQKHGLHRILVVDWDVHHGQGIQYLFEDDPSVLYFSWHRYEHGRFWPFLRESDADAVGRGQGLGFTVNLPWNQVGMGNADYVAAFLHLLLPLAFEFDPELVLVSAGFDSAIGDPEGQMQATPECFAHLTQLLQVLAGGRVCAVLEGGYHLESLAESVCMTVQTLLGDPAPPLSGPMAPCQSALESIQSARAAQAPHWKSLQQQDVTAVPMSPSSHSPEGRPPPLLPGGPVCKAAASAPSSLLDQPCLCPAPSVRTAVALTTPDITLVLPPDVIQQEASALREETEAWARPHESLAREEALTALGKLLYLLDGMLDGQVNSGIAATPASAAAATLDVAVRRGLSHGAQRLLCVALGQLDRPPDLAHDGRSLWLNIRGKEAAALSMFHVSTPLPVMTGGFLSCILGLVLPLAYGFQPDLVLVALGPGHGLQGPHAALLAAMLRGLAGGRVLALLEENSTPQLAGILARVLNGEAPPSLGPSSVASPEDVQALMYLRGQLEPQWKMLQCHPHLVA
In words: NanoBRET cellular target engagement assay. Particulars: HeLa cells. In kind it is binding. The method, then: HeLa cells, stably transfected with NanoBRET plasmids NanoLuc®-HDAC6 FL Fusion Vector and NanoLuc®-HDAC10 FL Fusion Vector (Promega, Madison, WI, USA) were seeded at 20,000 cells/well in white 96-well plates. Without further incubation, tracer (0.3 µM) and drugs were added in separate steps and plates were placed in a tissue culture incubator for 2 h. For NanoBRET quantification, plates were put at room temperature for 10 min. Nanoglow substrate, diluted in OptiMEM without phenol red, was added and measured within 10 min in an OPTIMA plate reader (460 nm emission for donor and 610LP filter for acceptor, BMG Labtech, Ortenberg, Germany). The BRET signal was calculated by the ratio of acceptor signal to donor signal.

Assay [2] deals with T2, HDAC3 (Homo sapiens, UniProt O15379).
T2 construct: purchased Reaction Biology Corp. (contract testing)
In words: Biochemical HDAC3 activity, fluorogenic p53 peptide (Reaction Biology). As to conditions: fluorogenic p53 peptide RHKK(Ac)AMC. The text has this:
^2 Biochemical HDAC3 IC50 value, determined using a fluorogenic p53 peptide, detailed results depicted in Supplementary Figure 1 a.

T2 sequence (O15379 whole entry): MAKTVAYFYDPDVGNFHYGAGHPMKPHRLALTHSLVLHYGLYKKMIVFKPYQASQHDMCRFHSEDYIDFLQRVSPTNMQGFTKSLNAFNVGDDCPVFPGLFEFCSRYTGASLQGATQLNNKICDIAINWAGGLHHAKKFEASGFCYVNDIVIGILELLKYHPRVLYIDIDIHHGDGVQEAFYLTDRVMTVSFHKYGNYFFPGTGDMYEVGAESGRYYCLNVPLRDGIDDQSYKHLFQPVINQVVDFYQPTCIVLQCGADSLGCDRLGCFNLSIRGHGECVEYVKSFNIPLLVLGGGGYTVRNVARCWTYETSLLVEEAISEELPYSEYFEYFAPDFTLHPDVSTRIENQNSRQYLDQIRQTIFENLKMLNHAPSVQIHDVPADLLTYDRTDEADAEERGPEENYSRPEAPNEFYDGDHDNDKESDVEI
T2 sequence (Q9Y618 395-489 partner limits assumed): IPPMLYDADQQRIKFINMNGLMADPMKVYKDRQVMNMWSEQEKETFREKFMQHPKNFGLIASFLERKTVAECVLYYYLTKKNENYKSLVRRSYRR

With `Cc1ccc(C(=O)NO)cc1NCc1ccccc1` [TH34, 3-(N-benzylamino)-4-methylbenzhydroxamic acid], the values for the half-inhibitory concentration (IC50) in assay [1] and in assay [2] were 7.7 µM and 78.3 ± 0.9 µM, respectively.
